Results: article PMC11546340 (BMC Chemistry, 2024)
Values joined by “and” are separate entries in the source; they are usually repeats but may differ in a detail not shown here. Equal values may be shown once.

Tests used:
[1] = Plasma protein binding, HT Dialysis 96-well apparatus, LC-MS/MS; format: in vitro ADME; settings: male, human, plasma, pH 7.4, Recovery (%), mean, n = 4
human plasma = experiment: as above; format: in vitro ADME; settings: 3 µM

## O=C(O)Cc1ccccc1Nc1c(Cl)cccc1Cl [Diclofenac]
[1]
  recovery at 5 h, 3 µM: 94.2%
Human plasma; individual replicates 1-4
  Bound (%): 99.01% and 99.07% and 98.91% and 98.99%
  Recovery (%): 80.60% and 94.07% and 119.11% and 83.10%
  Unbound (%): 0.99% and 0.93% and 1.09% and 1.01%
Human plasma; mean, n = 4
  Unbound (%): 1.01%
